Source: patent US7811760B2, “Vector and method for detecting the change in transcription amount” (priority 2006, dated 2010)

System: ligand-dependent transcription factors (AhR, ER, and AR)
Experiment: Reporter gene (luciferase) assay in Neuro2a cells carrying PGV-THp03 (SEQ ID No: 2)
Type: cell-based, mouse
Details: 10 nM, 30 hours, PGV-THp03, AhR-introduced Neuro2a
Procedure: A vector (PGV-THp03) containing the upstream region (SEQ ID No: 2) ranging from about −300 to 0 position of the TH gene-coding region, which was prepared in Example 4, was used. Neuro2a was used as the cell.
Two kinds of vectors, pcDNA4-rAhR (Example 1) and pcDNA4/V5-His/lacZ (Invitrogen), were introduced into Neuro2a, together with PGV-THp03. pcDNA4-rAhR was introduced for constitutive expression of the SD-line rat AhR gene (SEQ ID No: 10) in the cell, and pcDNA4/V5-His/lacZ was introduced for normalization of the vector transfection efficiency.
The vectors were introduced into the cell by using LIPOFECTAMINE 2000 (Invitrogen). The cell was cultured on a 24-well plate, and the operation was performed according to the manual of Invitrogen. A total of […] of vectors (0.4 μg of PGV-THp03, 0.2 μg of pcDNA4-rAhR, and 0.2 μg of pcDNA4/V5-His/lacZ) suspended in 50 μl of OPTI-MEM medium and 2 μl of LIPOFECTAMINE 2000 suspended in 50 μl of OPTI-MEM medium were mixed, and incubated at room temperature for 20 minutes to form nucleic acid/LIPOFECTAMINE 2000 complex. The obtained suspension containing the complex was added to Neuro2a cell culture, which has been previously cultured overnight in 500 μl of DF1:1 medium (containing 10% fetal calf serum) (0.8×10^5 cells were seeded on previous day), to allow incorporation of the vectors into the cell. The cell was cultured additionally for 24 hours after transfection, for the purpose of improvement in vector incorporation efficiency and expression of the protein derived from the introduced vectors.
As the test substances, vinclozolin (10 μM), dimethyl phthalate (10 μM), benzopyrene (1 μM), and dioxin (TCDD) (10 nM) were used. After the transfection and the additional incubation for 24 hours, the medium was replaced with a fresh medium containing any one of the test substances, and the cell was cultured additionally for 30 hours. After 30 hours, the medium was removed from the 24-well plate, and the cell was washed with phosphate buffer twice. 100 μl of a protein extraction solution (manufactured by TOYO B-NET) was added to each well, and the cell suspension was stirred gently at room temperature for 15 minutes and then frozen at −80° C. The frozen solution was thawed at room temperature, and the resulting solution was recovered in a tube and diluted ten times with a protein extraction reagent containing 1 mg/ml bovine serum albumin luciferase and β-galactosidase activities in the diluted solution were measured, and the expression amount of the reporter gene was calculated as a relative luminescence intensity per 1 ng of β-galactosidase per second (RLU/sec/ng β-galactosidase).

In the case of `Clc1cc2c(cc1Cl)Oc1cc(Cl)c(Cl)cc1O2` [TCDD, 2,3,7,8-tetrachlorodibenzo-p-dioxine], the luciferase activity increase was “approximately 1.4 times”.
